Converted amounts (≈) assume the structure as drawn.
Key:
S. aureus = test: Antibacterial susceptibility testing, IC90 determination with 10% human serum; assay type: cell-based, Staphylococcus aureus; settings: Staphylococcus aureus, S. aureus with human serum at final concentration of 10%; read-out: STA + 10% HS (361.169) IC90
Description: (§1) Antibacterial Susceptibility Testing: IC90 Determination MIC assays were performed by the broth microdilution method in a 96-well format (flat-bottom microtitre plates) with a final volume of 0.1 ml Mueller Hinton broth containing two-fold serial dilutions of compounds and inoculated with 5×10^5 CFU/ml of bacteria (standard inoculum size according to CLSI guidelines). Inhibitors are typically varied over the range of 63 to 0.49 μM. The final DMSO concentration in the assay was 1.25% (maximum tolerable DMSO concentration=6%). In the assays where the effect of human serum on the activity of the compounds against S. aureus was tested, human serum was added at a final concentration of 10%. The plates were incubated at 35° C. for 16-20 hours. At the end of incubation the bacterial growth was quantified fluorometrically. For this, resazurin was added to all wells and the plates were re-incubated. The incubation time is dependent on the type of bacteria. A change in color from blue to pink indicated the growth of bacteria. The fluorescence was read in computer-controlled fluorometer (Fluoroskan Ascent FL, Labsystems) at an excitation wavelength 540 nm and an emission wavelength of 590 nm. The % growth inhibition achieved by the compounds was calculated according to standard methods. The IC90 (expressed in μg/ml) was defined as the 90% inhibitory concentration for bacterial growth. A panel of reference compounds were simultaneously tested for QC approval. The results are depicted in the table(s) below (STA+10% HS).

[1] = target: T1, S. aureus ATCC 29213 FabI (Staphylococcus aureus, UniProt Q6GI75); test: Staphylococcus aureus FabI enzyme inhibition assay; assay type: biochemical; settings: NADH consumption, 30 minutes, read-out: FabI (300.235) IC50 (converted)
T1 sequence (Q6GI75 1-256): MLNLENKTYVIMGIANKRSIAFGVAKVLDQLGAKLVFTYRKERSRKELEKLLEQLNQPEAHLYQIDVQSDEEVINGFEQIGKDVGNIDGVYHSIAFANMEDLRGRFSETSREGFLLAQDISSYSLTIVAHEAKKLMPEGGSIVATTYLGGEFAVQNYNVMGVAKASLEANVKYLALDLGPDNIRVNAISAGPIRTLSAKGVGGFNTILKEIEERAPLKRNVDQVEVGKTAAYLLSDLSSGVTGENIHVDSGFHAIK
Description: Y.1 FabI Enzyme Inhibition: Staphylococcus aureus FabI Enzyme Inhibition Assay
FabI enzyme inhibition assays were carried out in half-area, 384-well microtitre plates. […] The reaction mixtures were incubated for 30 minutes at room temperature and the reaction was stopped by adding 200 mM Tris buffer (pH 9.0) to create a pH-shift. The consumption of NADH was monitored by measuring the change in absorbance at […]. By comparing sample readings to those of negative (absence of compound) and positive (absence of enzyme) controls, the percent inhibition of enzymatic activity of the compounds was determined A best-fit curve is fitted by a minimum of squares method. From this an IC50-value (expressed in μg/ml), resulting in 50% inhibition of enzymatic activity, was obtained.

Cytotoxicity MTT assay = assay type: cell-based, Human; settings: human, HelaM cells, read-out: HELAM (222.125) CC50
Description: Cytotoxicity of the compounds was evaluated using the MTT assay. Human HelaM cells grown in 96-well plates were exposed to serial dilutions of the tested compounds (final volume of 0.2 ml) and incubated for 72 hours at 37° C. and 5% CO2 Inhibitors are typically varied over the range of 25 to 0.8 μM. The final DMSO concentration in the assay is 0.5%. MTT (3-(4,5-Dimethylthiazol-2-yl)-2,5-diphenyltetrazolium bromide, a tetrazole) was added and reduced to purple formazan only in living cells. Solubilization of the formazan crystals was achieved by adding 100 μl 2-propanol. Cell viability was determined by measuring the absorbance of the reduced formazan, giving a purple color, at 540 nm and 690 nm. The absorbance measured at 690 nm was automatically subtracted from the absorbance at 540 nm, to eliminate the effects of non-specific absorption. The percent cytotoxicity achieved by the compounds was calculated according to standard methods. Cytotoxicity is reported as CC50, the concentration that causes a 50% reduction in cell viability.
The results are depicted in the table(s) below (HELAM).

[2] = tested on: Staphylococcus aureus ATCC 29213; test: Antibacterial susceptibility testing, IC90 determination (broth microdilution, resazurin); assay type: cell-based; settings: Staphylococcus aureus, ATCC29213, S. aureus ATCC 29213; 90% inhibitory concentration for bacterial growth; read-out: STA (361.159) IC90
Description: Y.2 In Vitro Method for Testing Compounds for Antibacterial Activity Against Various Bacterial Strains
Preparation of Bacterial Suspensions for Susceptibility Testing
The following bacteria were used: Staphylococcus aureus ATCC 29213, methicillin-resistant Staphylococcus aureus (MRSA) ATCC 700788 and Escherichia coli ATCC 35218. The bacteria used in this study were grown overnight in flasks containing 100 ml Mueller-Hinton broth (Difco cat. nr. 0757-17) in sterile de-ionized water, with shaking, at 37° C. Stocks were store at −70° C. until use.
Bacteria were incubated on a tryptic soy agar plate containing 5% sheep blood (Becton Dickinson cat. nr. 254053) for 18-24 hours at 35° C. in aerobic conditions (first passage). For the second passage, fresh Mueller-Hinton broth is inoculated with 5-10 colonies and grown overnight at 35° C. until turbidity (reaching log-phase) in aerobic conditions is reached. The bacterial suspension is then adjusted to 0.5 McFarland density and further diluted 1:100 in Mueller Hinton broth medium. This is used as inoculum.
The result(s) are depicted the table below (for STA ATCC 29213).
Antibacterial Susceptibility Testing: IC90 Determination
as §1, with “MIC” for “Antibacterial Susceptibility Testing: IC90 Determination MIC”, “approval.” for “approval. The results are depicted in the table(s) below (STA+10% HS).”

SMILES	IC90 (S. aureus)	IC50 [1]	CC50 at 72 h (Cytotoxicity MTT assay)	IC90 [2]	melting point
CC1(C(=O)Nc2ccc(/C=C/C(=O)N3CCC=C(c4ccccc4)CC3)cn2)CC1 [compound 15]	11.8 µg/mL	~1.07 µM	6.59 µg/mL (≈ 16.4 µM)	2.84 µg/mL (≈ 7.07 µM)	
O=C1Nc2ncc(/C=C/C(=O)N3CCC=C(c4ccccc4)CC3)cc2CN2CCNCC12 (stereo not shown) [compound 52]	4.75 µg/mL	21.4 µM	> 11.1 µg/mL	6.56 µg/mL (≈ 14.8 µM)	206 °C
O=C1Nc2ncc(/C=C/C(=O)N3CC=C(c4ccccc4)CCC3)cc2CN2CCOCC12 (stereo not shown) [compound 50]	1.58 µg/mL	0.697 µM	22 µg/mL (≈ 49.5 µM)	0.64 µg/mL (≈ 1.44 µM)	220 °C
O=C1Nc2ncc(/C=C/C(=O)N3CCC=C(c4ccccc4)CC3)cc2CN2CCSCC12 (stereo not shown) [compound 49]	1.23 µg/mL	1.11 µM	4.88 µg/mL (≈ 10.6 µM)	0.39 µg/mL (≈ 0.847 µM)	224.06 °C
O=C(Nc1ccc(/C=C/C(=O)N2CCC=C(c3ccccc3)CC2)cn1)C1CCOC1 (stereo not shown) [compound 20]	11.8 µg/mL	0.934 µM	10 µg/mL (≈ 24 µM)	6.69 µg/mL (≈ 16 µM)	152 °C
Cn1nccc1C(=O)Nc1ccc(/C=C/C(=O)N2CCC=C(c3ccccc3)CC2)cn1 [compound 10]	2.07 µg/mL	1.92 µM	5.44 µg/mL (≈ 12.7 µM)	0.92 µg/mL (≈ 2.15 µM)	138 °C
Nc1ccc(/C=C/C(=O)N2CCC=C(c3ccccc3)CC2)cn1 [compound 23]	> 20.1 µg/mL	3.01 µM	5.3 µg/mL (≈ 16.6 µM)	13.3 µg/mL (≈ 41.7 µM)	
O=C(Nc1ccc(/C=C/C(=O)N2CCC=C(c3ccccc3)CC2)cn1)C1CCCC1 [compound 18]	> 26.2 µg/mL	2.05 µM	2.62 µg/mL (≈ 6.31 µM)	6.29 µg/mL (≈ 15.1 µM)	141 °C
COc1ccc(F)cc1C1=CCCN(C(=O)/C=C/c2cnc3c(c2)COCC(=O)N3)CC1 [compound 32]	0.41 µg/mL	1.26 µM	10.1 µg/mL (≈ 23.2 µM)	0.22 µg/mL (≈ 0.503 µM)	234 °C
CC(C)C(=O)Nc1ccc(/C=C/C(=O)N2CCC=C(c3ccccc3)CC2)cn1 [compound 19]	20.9 µg/mL	1.28 µM	8.52 µg/mL (≈ 21.9 µM)	6.32 µg/mL (≈ 16.2 µM)	158 °C
CC(C)CC(=O)Nc1ccc(/C=C/C(=O)N2CCC=C(c3ccccc3)CC2)cn1 [compound 26]	> 25.5 µg/mL	1.39 µM	3.77 µg/mL (≈ 9.34 µM)	> 25.5 µg/mL	
O=C1CN(c2ccccc2)Cc2cc(/C=C/C(=O)N3CCC=C(c4ccccc4)CC3)cnc2N1 [compound 42]	3.33 µg/mL	~1.51 µM	11.7 µg/mL (≈ 25.1 µM)	0.77 µg/mL (≈ 1.66 µM)	
CS(=O)(=O)N1CC(=O)Nc2ncc(/C=C/C(=O)N3CCC=C(c4ccccc4)CC3)cc2C1 [compound 37]	0.66 µg/mL	0.686 µM	2.04 µg/mL (≈ 4.37 µM)	0.48 µg/mL (≈ 1.03 µM)	
Cc1cc(C(=O)Nc2ccc(/C=C/C(=O)N3CCC=C(c4ccccc4)CC3)cn2)no1 [compound 16]	6.71 µg/mL	1.54 µM	7.89 µg/mL (≈ 18.4 µM)	3.29 µg/mL (≈ 7.68 µM)	169.37 °C
O=C(Nc1ccc(/C=C/C(=O)N2CCC=C(c3ccccc3)CC2)cn1)C1CCCO1 (stereo not shown) [compound 30]	33.3 µg/mL	~1.76 µM	11 µg/mL (≈ 26.4 µM)	27.7 µg/mL (≈ 66.3 µM)	
Cn1cc(C(=O)Nc2ccc(/C=C/C(=O)N3CCC=C(c4ccccc4)CC3)cn2)cn1 [compound 4]	1.66 µg/mL	1.4 µM	3.94 µg/mL (≈ 9.22 µM)	0.63 µg/mL (≈ 1.47 µM)	
CC(C)Nc1ccc(/C=C/C(=O)N2CCC=C(c3ccccc3)CC2)cn1 [compound 24]	> 22.8 µg/mL	5.26 µM	> 9.08 µg/mL	21 µg/mL (≈ 58.2 µM)	
CC(C)(C)C(=O)Nc1ccc(/C=C/C(=O)N2CCC=C(c3ccccc3)CC2)cn1 [compound 25]	> 25.5 µg/mL	2.03 µM	6.32 µg/mL (≈ 15.7 µM)	> 25.5 µg/mL	
O=C(Nc1ccc(/C=C/C(=O)N2CCC=C(c3ccccc3)CC2)cn1)C1CCCCC1 [compound 29]	> 27.1 µg/mL	3.1 µM	3.15 µg/mL (≈ 7.33 µM)	> 27.1 µg/mL	
O=C1Nc2ncc(/C=C/C(=O)N3CCC=C(c4ccccc4)CC3)cc2CN2CCSCC12 (stereo not shown) [Compound K1]					224 °C
O=C(Nc1ccc(/C=C/C(=O)N2CCC=C(c3ccccc3)CC2)cn1)c1ccccn1 [compound 27]	> 26.8 µg/mL	2.1 µM	3.83 µg/mL (≈ 9.02 µM)	> 26.8 µg/mL	
CC(=O)N1CC(=O)Nc2ncc(/C=C/C(=O)N3CCC=C(c4ccccc4)CC3)cc2C1 [compound 39]	0.75 µg/mL	0.743 µM	> 10.8 µg/mL	0.51 µg/mL (≈ 1.18 µM)	
O=CNc1ccc(/C=C/C(=O)N2CCC=C(c3ccccc3)CC2)cn1 [compound 7]	1.25 µg/mL	0.662 µM	7.18 µg/mL (≈ 20.7 µM)	0.78 µg/mL (≈ 2.25 µM)	
COc1ccc(F)cc1C1=CCCN(C(=O)/C=C/c2cnc3c(c2)CN2CCN(C(C)=O)CC2C(=O)N3)CC1 (stereo not shown) [compound 48]	0.46 µg/mL	1.11 µM	> 13.4 µg/mL	< 0.26 µg/mL	
O=C(Nc1ccc(/C=C/C(=O)N2CCC=C(c3ccccc3)CC2)cn1)c1cnccn1 [compound 28]	26.2 µg/mL	1.2 µM	> 10.7 µg/mL	> 26.8 µg/mL	

From patent US9296760B2, “Antibacterial compounds” (JANSSEN SCIENCES IRELAND UC, priority 2012, dated 2016)
